Experiments:
[1] = tested on: cholesterol absorption; assay: Cholesterol absorption, fecal dual-isotope ratio method; assay type: in vivo, mouse; conditions: single gavage, feces 24 hours
Experimental: FIGS. 5A-I depict several graphs that illustrate that SPT deficient mice absorbed less cholesterol. Mice (n=6, 10-12 weeks old) were fasted for 5 hours and gavaged with 0.1 microCi [^14C]cholesterol and 0.2 microCi [^3H]sitostanol with 0.5 mg unlabeled cholesterol dissolved in 15 microl of olive oil. Feces were collected after 24 hours and lipids were extracted for counting (FIGS. 5A, 5D, and 5G, cholesterol absorption, WT vs WT/myriocin; apoE KO vs apoE KO/myriocin; WT vs Sptlc1^+/−, respectively). Blood was collected during the 24 hour period (Panels B, E, and H, [^14C]cholesterol in blood, WT vs WT/myriocin; apoE KO vs apoE KO/myriocin; WT vs Sptlc1^+/−, respectively). To test specificity, the mice were gavaged with 0.2 microCi [^3H]triolein together with 0.5 mg/ml cold cholesterol. Blood was collected during the 24 hour period (FIGS. 5C, 5F, and 5I, [^3H] glycerolipids in blood, WT versus WT/myriocin; apoE KO versus apoE KO/myriocin; WT versus Sptlc1^+/−, respectively). […]
Cholesterol absorption studies: A classical fecal dual-isotope ratio method was used for the cholesterol absorption study. […] The cholesterol absorption ratio was calculated as: % absorption={1−[fecal(^14C/^3H)]/administered(^14C/^3H)}×100. In some cases, mice were sacrificed, plasma collected, and radioactivity counted. […] Each of these, as well as a part of the liver, were digested and radioactivity counted individually. […]

[2] = tested on: cholesterol absorption; assay: Blood [14C]-cholesterol within 24 hours after a single gavage; assay type: in vivo, mouse
Experimental: (§1) FIGS. 5A-I depict several graphs that illustrate that SPT deficient mice absorbed less cholesterol. Mice (n=6, 10-12 weeks old) were fasted for 5 hours and gavaged with 0.1 microCi [^14C]cholesterol and 0.2 microCi [^3H]sitostanol with 0.5 mg unlabeled cholesterol dissolved in 15 microl of olive oil. Feces were collected after 24 hours and lipids were extracted for counting (FIGS. 5A, 5D, and 5G, cholesterol absorption, WT vs WT/myriocin; apoE KO vs apoE KO/myriocin; WT vs Sptlc1^+/−, respectively). Blood was collected during the 24 hour period (Panels B, E, and H, [^14C]cholesterol in blood, WT vs WT/myriocin; apoE KO vs apoE KO/myriocin; WT vs Sptlc1^+/−, respectively). To test specificity, the mice were gavaged with 0.2 microCi [^3H]triolein together with 0.5 mg/ml cold cholesterol. Blood was collected during the 24 hour period (FIGS. 5C, 5F, and 5I, [^3H] glycerolipids in blood, WT versus WT/myriocin; apoE KO versus apoE KO/myriocin; WT versus Sptlc1^+/−, respectively). Value is mean±SD. *P<0.01.
This confirmed that there was defective cholesterol absorption in these animals.

[3] = tested on: triglyceride absorption; assay: [3H]triolein-derived counts in plasma (triglyceride absorption); assay type: in vivo, mouse; conditions: myriocin treated animals (WT, apoE KO), within 24 hours
Experimental: as §1
To investigate whether the effect of SPT deficiency was specific to cholesterol, experimental mice were fed with […] [^3H]triolein instead of [^14C]cholesterol, and blood was collected at different time points within 24 hours.

[4] = tested on: primary enterocyte; assay: Cholesterol and oleic acid uptake by primary enterocytes; assay type: cell-based, mouse
Experimental: FIGS. 6A-D depict several graphs that illustrate that SPT deficient enterocytes absorb less cholesterol than controls. Enterocytes were isolated from mice (n=4, 12-14 weeks old) and resuspended in 4 ml of DMEM containing 0.05 microCi/ml of either [^14C]cholesterol (FIGS. 6A and 6C) or [^3H]oleic acid (FIGS. 6B and 6D). Enterocytes (100 microl) were collected at 5, 10, and 20 minutes, washed twice with DMEM, and cellular radioactivity was determined. The amounts of lipids were normalized to protein and plotted against time. FIGS. 6A and 6B, WT vs WT/myriocin; FIGS. 6C and 6D, WT vs Sptlc1^+/−, Values are mean±SD. *P<0.01.
Cholesterol uptake by primary enterocyte: The enterocyte cholesterol uptake study was carried out as disclosed in: Iqbal J, Hussain M M. Evidence for multiple complementary pathways for efficient cholesterol absorption in mice. J Lipid Res. 2005; 46:1491-1501, which is incorporated herein by reference in its entirety.
For further confirmation of the above in vivo observations, enterocytes were isolated from myriocin-treated or Sptlc1^+/− mice, as well as controls, incubated with radiolabeled cholesterol for varying times, and the cellular radioactivity was determined. […] Experiments were performed to study the uptake of [^3H]oleic acid.

[5] = tested on: enterocytes; assay: Mouse enterocyte lipid measurement; assay type: in vivo
Experimental: The mechanisms responsible for decreased cholesterol absorption in myriocin-treated or Sptlc1^+/− mice were explored. First, lipid levels were measured in enterocytes isolated from myriocin-treated and Sptlc1^+/− mice, as well as controls.

[6] = tested on: ABCG5; assay: Western blot of small intestine homogenates, ABCG5; assay type: in vivo, mouse; conditions: WT and apoE KO mice, compared with nontreated animals
Experimental: (§2) FIG. 8 depicts that SPT deficiency decreased NPC1L1 and ABCA1, and increased ABCG5 in mouse small intestine. Tissue homogenates were prepared as described in Methods, and equal amounts of homogenates from each mouse were pooled in each group (n=5). A total of 50 microg pooled sample from each group was immunoblotted with antibodies against NPC1L1, ABCA1, and ABCG5. Immunoblots of beta (β)-actin were used as a loading control.
(§3) Preparation and Western blot analysis of small intestine homogenates: A total of 50-100 mg of small intestine sample was homogenized and lysed proteins were immunoblotted, as previously described, (3) with a polyclonal rabbit antihuman NPC1L1 antiserum 69B, a polyclonal rabbit antimouse ABCG5 antiserum, a polyclonal antimouse ABCA1 antibody, and a monoclonal mouse anti-(beta)β-actin antibody.
(§4) Next, Western blot measurements of NPC1L1 and ABCG5/G8 were completed, where the measurement were located in apical membranes of the enterocytes. […] Also, ABCA1 was measured, which is located in the basal membranes of the enterocytes and is involved in cholesterol secretion.

[7] = tested on: ABCA1; assay: Western blot of small intestine homogenates, ABCA1; assay type: in vivo, mouse; conditions: SPT-deficient small intestines (myriocin-treated, FIG. 6A) compared with controls
Experimental: as §2, §3, §4

[8] = myriocin-treated mice vs controls

For `CCCCCCC(=O)CCCCCC/C=C/C[C@@H](O)[C@H](O)[C@@](N)(CO)C(=O)O` [Myriocin, myriocin], the “reduction in cholesterol absorption compared with controls” value ([1]; myriocin-treated WT mice, P<0.01) was 36%, the “reduction in cholesterol absorption compared with controls” value ([1]; myriocin-treated apoE KO mice, P<0.001) was 50% and the “[14C]-cholesterol in the circulation vs controls” value ([2]; myriocin-treated WT mice) was “significantly less”. The “[14C]-cholesterol in the circulation vs controls” value ([2]; myriocin-treated apoE KO mice) was “significantly less”, the “[3H]triolein-derived counts in the plasma vs controls” value [3] was “No significant changes” and the “uptake of [3H]oleic acid vs controls” value ([4]; enterocytes isolated from myriocin-treated mice) was “No significant changes”. For the same compound, the “radiolabeled cholesterol uptake (cellular radioactivity) vs controls” value ([4]; enterocytes isolated from myriocin-treated mice, 5, 10, 20 minutes) was “significantly less radioactivity”, the “enterocyte Chol (cholesterol)” value ([5]; WT mice, mean ± SD, N=5-7) was 16.2 ± 1.2 microg/mg protein and the “enterocyte PC (phosphatidylcholine)” value ([5]; WT mice, mean ± SD, N=5-7) was 27.9 ± 2.3 microg/mg protein. For the same compound, the “enterocyte SM (sphingomyelin)” value ([5]; WT mice, mean ± SD, N=5-7) was 6.2 ± 0.9 microg/mg protein, the “enterocyte TG (triglycerol)” value ([5]; WT mice, mean ± SD, N=5-7) was 11.1 ± 1.9 microg/mg protein and the “SM levels in enterocytes, in words” value [5, 8] was “significantly decreases”. The “cellular cholesterol, phosphatidylcholine, or triglyceride levels in enterocytes, in words” value [5, 8] was “no effect”, the “ABCG5 protein mass in small intestine” value [6] was “increased” and the “ABCA1 protein in small intestine” value [7] was “decreased”.
